Tests used:
[1] = Biodistribution: % injected dose in several tissues of Sprague Dawley rats, 30 min after tail vein injection; type: in vivo; details: rat
Protocol: Sprague Dawley rats were allowed to acclimate for five days then injected with 100 μL of the complex solution via a tail vein. The rats weighed between 150 and 200 g at the time of injection. After 30 min. the rats were killed by cervical dislocation and dissected. The amount of radioactivity in each tissue was determined by counting in a NaI scintillation counter coupled to a multichannel analyzer. The counts were compared to the counts in 100 μL standards in order to determine the percentage of the dose in each tissue or organ.
The percent dose in blood was estimated assuming blood to be 7% of the body weight. The percent dose in bone was estimated by multipuling the percent dose in the femur by 25. The percent dose in muscle was estimated assuming muscle to be 43% of the body weight.
In addition to organ biodistribution, chelates of the compounds of Formula (I) were evaluated for efficiency of bone localization since phosphonates are known for their ability to bind to hydroxyapatite.
The percent of the injected dose of complex of Example 1 (^159 Gd-PCTA) in several tissues are given in Table I. The numbers represent the average of 5 rats? per data point.

[2] = Imaging experiments (MRI) in rat, kidney enhancement; type: in vivo, Sprague Dawley rat; details: intramuscular, 0.05-0.1 mmol Gd/kg body weight
Protocol: Injectable solutions were first prepared (0.5M) by dissolving the appropriate amount of each complex in 2 mL of deionized water. The pH of the solutions were then adjusted to 7.4 using 1M HCl or NaOH as needed. The total Gd content of each solution was then determined by ICP analysis.
An anethized Sprague Dawley rat was injected intramuscularly with one of the metal solutions described above at a dose of 0.05-0.1 mmol Gd/kg body weight. Images were then taken at various time intervals and compared with a non-injected control at time 0.

[3] = Percent metal as a complex (Sephadex column, 159Gd tracer); type: physicochemical
Protocol: A stock ^159 GdCl3 solution was prepared by adding 2 μL of 3×10^-4 M ^159 GdCl3 in 0.1N HCl to 2 mL of a 3×10^-4 M GdCl3 carrier solution. Appropriate ligand solutions were then prepared in deionized water. The 1:1 ligand/metal complexes were then prepared by combining the ligands (dissolved in 100-500 μL of deionized water) with 2 mL of the stock 159GDCl3 solution, followed by through mixing to give an acidic solution (pH=2). The pH of the solution was then raised to 7.0 using 0.1N NaOH. The percent metal as a complex was then determined by passing a sample of the complex solution through a Sephadex™ G-50 column, eluting with 4:1 saline ([…]) and collecting 2×3 mL fractions. The amount of radioactivity in the combined elutions was then compared with that left on the resin (non-complexed metal is retained on the resin). […]
A solution of the ligand of Example D was prepared by dissolving 3.8 mg of ligand/0.517 mL of deionized water (pH=2). […] After thorough mixing, the percent metal as a complex was determined by passing a sample of the complex solution through a Sephadex™ column, eluting with 4:1 saline (0.85% NaCl/NH4 OH), and collecting 2×3 mL fractions. The amount of radioactivity in the combined elutions was then compared with that left on the resin. […] By this method complexation was determined to be 92%. […] The pH stability was then determined using the General Procedure above.

[4] = commercial contrast agent, background; cited from earlier work

SMILES | % injected dose in blood, average ([1]; blood (assumed 7% of body weight), 100 μL tail vein, average of 5 rats) | % injected dose in bone, average ([1]; bone (femur x 25), 100 μL tail vein, average of 5 rats) | % injected dose in kidney, average ([1]; kidney, 100 μL tail vein, average of 5 rats) | % injected dose in liver, average ([1]; liver, 100 μL tail vein, average of 5 rats) | % injected dose in muscle, average ([1]; muscle (assumed 43% of body weight), 100 μL tail vein, average of 5 rats) | bone to blood ratio (% dose/g) ([1]; ratio of % dose/g) | bone to liver ratio ([1]; ratio of % dose/g) | bone to muscle ratio ([1]; ratio of % dose/g) | % injected dose in spleen, average ([1]; spleen, 100 μL tail vein, average of 5 rats) | uptake by the renal system [2] | enhancement of the kidney image ([2]; vs non-injected control at time 0) | complexation after passing through the resin ([3]; 1:1 ligand to metal ratio, after passing through the resin) | complexation (percent metal as a complex) ([3]; 1:1 ligand/metal, before passing through the resin) | distribution [4] | elimination [4]
O=C([O-])CN1CCN(CC(=O)[O-])Cc2cccc(n2)CN(CC(=O)[O-])CC1.[159Gd+3] [Gd-PCTA, ^159 Gd-3,6,9,15-tetraazabicyclo[9.3.1]pentadeca-1(15),11,13-triene-3,6,9-trimethylenecarboxylic acid] | 5.10 % INJECTED DOSE | 7.38 % INJECTED DOSE | 1.81 % INJECTED DOSE | 0.78 % INJECTED DOSE | 7.76 % INJECTED DOSE | 7 | 3.5 | 4.8 | 0.05 % INJECTED DOSE | rapidly taken up by the renal system | brilliant enhancement of the kidney cortex as well as peripheral kidney tissue | greater than 98% | 92% | – | –
CNC[C@H](O)[C@@H](O)[C@H](O)[C@H](O)CO.CNC[C@H](O)[C@@H](O)[C@H](O)[C@H](O)CO.O=C([O-])CN(CCN(CC(=O)[O-])CC(=O)O)CCN(CC(=O)[O-])CC(=O)O.[Gd+3] [Magnevist, complex of gadolinium with diethylenetriaminepentaacetic acid] | – | – | – | – | – | – | – | – | – | – | – | – | – | freely distributes in extracellular fluid | efficient elimination through the renal system

Reference: patent publication US5480990A, “Bicyclopolyazamacrocyclocarboxylic acid complexes for use as contrast agents” (The Dow Chemical Company, priority 1993, dated 1996)
